# Where two headings read alike, the source gives them in different places.
# Experiments:
# [1] = Preservation of gastrin-17 in 5% DMSO/serum or plasma solutions; assay type: physicochemical; conditions: 5% (vol./vol.) DMSO/serum or plasma solutions, even at room temperature
# [2] = for gastrin-17 concentration, Avg.: average of days 0-3
# [3] = room temperature
# Description: The effect of adding DMSO was tested on pepsinogen I, pepsinogen II, Helicobacter pylori antibodies and gastrin-17. The results are indicated at day 0 and day 3.
# [4] = Storage stability of analytes in serum sample without stabilizer (background statement); assay type: physicochemical; conditions: serum sample
# From the text: In connection with said determinations and sample handling the poor stability of gastrin-17 has proven to be a problem, due to the fact that it decomposes rapidly in the sample. […] This is in contrast to pepsinogen I and II, which retain their activity at room temperature for many days, and Helicobacter pylori antibodies, which survive for at least three days under refrigerator conditions.
# [5] = Stability of the same analytes in serum samples, with and without 5% DMSO (Table 3); assay type: physicochemical
# From the text: Table 3 is a test corresponding to the test of Table 2, but where the ten samples to be tested were serum samples rather than plasma samples.
substance,measurement,setting,value
gastrin-17 [Gastrin 17],time for which gastrin-17 was preserved,[1],at least three
same,"gastrin-17 concentration, Avg.","[2]; EDTA-plasma sample PL459S, 0% DMSO",4.1 pmol/L
same,gastrin-17 concentration,"[2]; EDTA-plasma sample PL459S, 0% DMSO, day 0",8.5 pmol/L
same,gastrin-17 concentration,"[2]; EDTA-plasma sample PL459S, 0% DMSO, day 1",3.6 pmol/L
same,gastrin-17 concentration,"[2]; EDTA-plasma sample PL459S, 0% DMSO, day 2",2.7 pmol/L
same,gastrin-17 concentration,"[2]; EDTA-plasma sample PL459S, 0% DMSO, day 3",1.5 pmol/L
same,"gastrin-17 concentration, Avg.","[2]; EDTA-plasma sample PL459S, 5% DMSO",5.6 pmol/L
same,gastrin-17 concentration,"[2]; EDTA-plasma sample PL459S, 5% DMSO, day 0",6.3 pmol/L
same,gastrin-17 concentration,"[2]; EDTA-plasma sample PL459S, 5% DMSO, day 1",5.4 pmol/L
same,gastrin-17 concentration,"[2]; EDTA-plasma sample PL459S, 5% DMSO, day 2",5.2 pmol/L
same,gastrin-17 concentration,"[2]; EDTA-plasma sample PL459S, 5% DMSO, day 3",5.4 pmol/L
same,"gastrin-17 concentration, Avg.","[2]; EDTA-plasma sample PL460s, 0% DMSO",6.0 pmol/L
same,gastrin-17 concentration,"[2]; EDTA-plasma sample PL460s, 0% DMSO, day 0",7.9 pmol/L
same,gastrin-17 concentration,"[2]; EDTA-plasma sample PL460s, 0% DMSO, day 1",5.8 pmol/L
same,gastrin-17 concentration,"[2]; EDTA-plasma sample PL460s, 0% DMSO, day 2",5.8 pmol/L
same,gastrin-17 concentration,"[2]; EDTA-plasma sample PL460s, 0% DMSO, day 3",4.6 pmol/L
same,"gastrin-17 concentration, Avg.","[2]; EDTA-plasma sample PL460s, 5% DMSO",6.0 pmol/L
same,gastrin-17 concentration,"[2]; EDTA-plasma sample PL460s, 5% DMSO, day 0",6.3 pmol/L
same,gastrin-17 concentration,"[2]; EDTA-plasma sample PL460s, 5% DMSO, day 1",5.5 pmol/L
same,gastrin-17 concentration,"[2]; EDTA-plasma sample PL460s, 5% DMSO, day 2",6.1 pmol/L
same,gastrin-17 concentration,"[2]; EDTA-plasma sample PL460s, 5% DMSO, day 3",6.0 pmol/L
same,"gastrin-17 concentration, Avg.","[2]; EDTA-plasma sample PL461s, 0% DMSO",12.4 pmol/L
same,gastrin-17 concentration,"[2]; EDTA-plasma sample PL461s, 0% DMSO, day 0",26.0 pmol/L
same,gastrin-17 concentration,"[2]; EDTA-plasma sample PL461s, 0% DMSO, day 1",8.7 pmol/L
same,gastrin-17 concentration,"[2]; EDTA-plasma sample PL461s, 0% DMSO, day 2",8.5 pmol/L
same,gastrin-17 concentration,"[2]; EDTA-plasma sample PL461s, 0% DMSO, day 3",6.1 pmol/L
same,"gastrin-17 concentration, Avg.","[2]; EDTA-plasma sample PL461s, 5% DMSO",21.8 pmol/L
same,gastrin-17 concentration,"[2]; EDTA-plasma sample PL461s, 5% DMSO, day 0",24.3 pmol/L
same,gastrin-17 concentration,"[2]; EDTA-plasma sample PL461s, 5% DMSO, day 1",21.6 pmol/L
same,gastrin-17 concentration,"[2]; EDTA-plasma sample PL461s, 5% DMSO, day 2",19.9 pmol/L
same,gastrin-17 concentration,"[2]; EDTA-plasma sample PL461s, 5% DMSO, day 3",21.2 pmol/L
same,Gastrin 17 concentration,"[3]; EDTA-plasma sample PL466s, 0% DMSO, day 0",7.6 pmol/L
same,Gastrin 17 concentration,"[3]; EDTA-plasma sample PL466s, 0% DMSO, day 3",1.6 pmol/L
same,Gastrin 17 concentration,"[3]; EDTA-plasma sample PL466s, 5% DMSO, day 0",7.8 pmol/L
same,Gastrin 17 concentration,"[3]; EDTA-plasma sample PL466s, 5% DMSO, day 3",6.9 pmol/L
same,Gastrin 17 concentration,"[3]; EDTA-plasma sample PL467s, 0% DMSO, day 0",5.3 pmol/L
same,Gastrin 17 concentration,"[3]; EDTA-plasma sample PL467s, 0% DMSO, day 3",2.9 pmol/L
same,Gastrin 17 concentration,"[3]; EDTA-plasma sample PL467s, 5% DMSO, day 0",4.4 pmol/L
same,Gastrin 17 concentration,"[3]; EDTA-plasma sample PL467s, 5% DMSO, day 3",4.5 pmol/L
same,Gastrin 17 concentration,"[3]; EDTA-plasma sample PL471s, 0% DMSO, day 0",1.3 pmol/L
same,Gastrin 17 concentration,"[3]; EDTA-plasma sample PL471s, 0% DMSO, day 3",0.2 pmol/L
same,Gastrin 17 concentration,"[3]; EDTA-plasma sample PL471s, 5% DMSO, day 0",1.7 pmol/L
same,Gastrin 17 concentration,"[3]; EDTA-plasma sample PL471s, 5% DMSO, day 3",1.4 pmol/L
same,Gastrin 17 concentration,"[3]; EDTA-plasma sample PL472s, 0% DMSO, day 0",20 pmol/L
same,Gastrin 17 concentration,"[3]; EDTA-plasma sample PL472s, 0% DMSO, day 3",2.9 pmol/L
same,Gastrin 17 concentration,"[3]; EDTA-plasma sample PL472s, 5% DMSO, day 0",21 pmol/L
same,Gastrin 17 concentration,"[3]; EDTA-plasma sample PL472s, 5% DMSO, day 3",14.3 pmol/L
same,Gastrin 17 concentration,"[3]; EDTA-plasma sample PL473s, 0% DMSO, day 0",3.7 pmol/L
same,Gastrin 17 concentration,"[3]; EDTA-plasma sample PL473s, 0% DMSO, day 3",0.6 pmol/L
same,Gastrin 17 concentration,"[3]; EDTA-plasma sample PL473s, 5% DMSO, day 0",3.8 pmol/L
same,Gastrin 17 concentration,"[3]; EDTA-plasma sample PL473s, 5% DMSO, day 3",3.4 pmol/L
same,state of the analyte in a serum sample after a day,"[4]; after a day, refrigerating conditions",degraded completely
same,time after which the concentration in a serum sample starts to decrease clearly,[4]; no stabilizer,three
same,Gastrin 17 concentration,"[5]; serum sample PL411s, 0% DMSO",33.4 pmol/L
same,Gastrin 17 concentration,"[5]; serum sample PL411s, 5% DMSO",32.5 pmol/L
same,Gastrin 17 concentration,"[5]; serum sample PL420b, 0% DMSO",24.1 pmol/L
same,Gastrin 17 concentration,"[5]; serum sample PL420b, 5% DMSO",20.1 pmol/L
same,Gastrin 17 concentration,"[5]; serum sample PL426s, 0% DMSO",1.1 pmol/L
same,Gastrin 17 concentration,"[5]; serum sample PL426s, 5% DMSO",1.9 pmol/L
same,Gastrin 17 concentration,"[5]; serum sample PL438s, 0% DMSO",9.3 pmol/L
same,Gastrin 17 concentration,"[5]; serum sample PL438s, 5% DMSO",9.8 pmol/L
same,Gastrin 17 concentration,"[5]; serum sample PL439s, 0% DMSO",7.4 pmol/L
same,Gastrin 17 concentration,"[5]; serum sample PL439s, 5% DMSO",8.5 pmol/L
same,Gastrin 17 concentration,"[5]; serum sample PL447b, 0% DMSO",18.2 pmol/L
same,Gastrin 17 concentration,"[5]; serum sample PL447b, 5% DMSO",21.7 pmol/L
same,Gastrin 17 concentration,"[5]; serum sample PL454s, 0% DMSO",4.4 pmol/L
same,Gastrin 17 concentration,"[5]; serum sample PL454s, 5% DMSO",5.6 pmol/L
same,Gastrin 17 concentration,"[5]; serum sample PL455b, 0% DMSO",15.6 pmol/L
same,Gastrin 17 concentration,"[5]; serum sample PL455b, 5% DMSO",17.6 pmol/L
same,Gastrin 17 concentration,"[5]; serum sample PL457b, 0% DMSO",3.3 pmol/L
same,Gastrin 17 concentration,"[5]; serum sample PL457b, 5% DMSO",6.0 pmol/L
same,Gastrin 17 concentration,"[5]; serum sample PL458s, 0% DMSO",5.4 pmol/L
same,Gastrin 17 concentration,"[5]; serum sample PL458s, 5% DMSO",2.2 pmol/L
same,activity in samples with added 5% (vol./vol.) of DMSO,[5]; serum samples,generally retained activity
